Experimental data reported in patent publication US12343335B2, “Pharmaceutical composition for treating multiple sclerosis on basis of AMPK inhibitory function and zinc homeostasis control function” (ZINCURE CORP., priority 2019, dated 2025).

Assays:
neuronal cell death = conditions: after stroke; Eom J. W. et al., ACS Chem Neurosci. 2019; cited from earlier work
[1] = tested on: spinal cord white matter of EAE mice; test: Zinc staining (TSQ) of spinal cord of EAE mice; assay type: in vivo, C57BL/6 female mice; conditions: day 21 after EAE induction
spinal cord of EAE mice = test: Immunohistochemistry of spinal cord of EAE mice (CD4, CD8, CD20, IgG leakage); assay type: in vivo, C57BL/6 female mice
Experimental: (§1) The present inventors induced experimental autoimmune encephalomyelitis (EAE), an animal model of multiple sclerosis, by subcutaneously injecting Myelin oligodendrocyte glycoprotein 35-55 (MOG35-55) peptide antigen into C57BL/6 female mice (FIG. 1A). For this, MOG35-55 (Ana spec, USA) and Complete freund's adjuvant (CFA) were first prepared, and MOG35-55 (2 mg/ml) was dissolved in Phosphate buffered saline (lx PBS, Sigma), and then the 25 ml of CFA was prepared by dispending 25 ml of incomplete freund's adjuvant (IFA. Sigma) in a 50 ml conical tube. Then, in a fume hood, Mycobacterium tuberculosis H37Ra (100 mg; Difco, USA) was added to the IFA in order to prepare CFA and store it in the refrigerator after vortexing before use. Thereafter, MOG35-55 and CFA containing Mycobacterium tuberculosis H37Ra was mixed in the same amount and injected into both flanks of the mice. And then Pertussis toxin (4 μg/ml, List Biological Laboratories, USA) was injected intraperitoneally on the day of immunization and on the second day after immunization. After the immunization, the mice's body weight and clinical symptoms were measured every day, and the degree of EAE progression was evaluated based on specific clinical symptoms. More details on this are provided below.
On the 21st day after EAE induction, the present inventors anesthetized mice with urethane and then perfused 4% paraformaldehyde into the heart to fix the spinal cord. And then, an immunohistochemistry was performed using anti-CD4, anti-CD8, and anti-CD20 antibodies […]. Cryosections were reacted with 3% hydrogen peroxide at room temperature for 15 minutes to remove endogenous peroxidase, and then primary antibodies, rat anti-CD4 (1:50, BD Bioscience, CA, USA), anti-CD8 (1:50, BD Bioscience) and goat anti-CD20 (1:50, SantaCruz Biotechnology, USA) antibodies were reacted for 15 hours at 4° C. Thereafter, biotinylated anti-rat IgG or anti-goat IgG (1:250, Vector Laboratories, USA) was reacted at room temperature for 2 hours. […]

cultivated neurons = test: Cytosolic zinc level in cultured neurons with FluoZin-3; assay type: cell-based, mouse; conditions: neurons exposed to zinc (300 μM) for 15 minutes, measured for 60 min
Experimental: The mouse cortical neurons used in the present invention were extracted from the brain of a mouse embryo, and cultured in Dulbecco's modified Eagle's medium (DMEM, Gibco, Grand Island, NY, US) supplemented with 5% fetal bovine serum (FBS) and 5% horse serum (HS) under the condition of 95% humidity, 5% CO2 and 37° C. For activation and differentiation of the cells, the cells were grown to a density of 2×10^4 cells in a 24-well tissue culture plate and cultured in MEM medium without FBS and HS before treatment with zinc and compounds.
The present inventors treated FluoZin-3, a substance illuminate fluorescence if it bind to free zinc to cultivated neurons in order to verify the possibility of zinc chelation according to the treatment of 1H10 {(Z)-5-((1H-indol-3-yl)methylene)-2-((3-hydroxyphenyl)amino)thiazol-4(5H)-one} according to an embodiment of the present invention, and then measured cytosolic zinc level in the neurons for 60 min after exposing zinc (300 μM) for 15 minutes and removing the zinc. In addition, 20 μM zinc (ZnCl2) and NewPort Green DCF fluorophore, which emits fluorescence when it bind to zinc, were added to the test tube, and 1H10 of the present invention was treated at various concentrations. Clioquinol, a zinc chelator, and calcium ionophore Phosphorus ionomycin was used as controls. […]

[2] = tested on: MOG35-55-induced experimental autoimmune encephalomyelitis (EAE); test: EAE clinical symptom assessment and incidence rate, 21 days after immunization; assay type: in vivo, C57BL/6 female mice; conditions: EAE mice, 1H10 intraperitoneally once a day, vs vehicle
Excerpt: The experimental animals used in the present invention are an 8-week-old, C57BL/6 female mice supplied from Dae Han BioLink, Co., Ltd. (Korea). These mice were bred in an environment controlled by temperature and humidity, and feed and water were fed freely.
as §1, with “Thereafter, MOG35-55 and CFA containing Mycobacterium tuberculosis H37Ra was mixed in the same amount and injected into both flanks of the mice. And then Pertussis toxin (4 μg/ml, List Biological Laboratories, USA) was injected intraperitoneally on the day of immunization and on the second day after immunization.” left out, “More details on this are provided below.” left out
EAE clinical symptom was evaluated based on previous studies (Jones et al., J. Neuroimmunol. 199(1-2): 83-93. 2008). […]

## O=C1N=C(Nc2cccc(O)c2)S/C1=C\c1c[nH]c2ccccc12 [1H10, (Z)-5-((1H-indol-3-yl)methylene)-2-((3-hydroxyphenyl)amino)thiazol-4(5H)-one]
Neuronal cell death
  neuronal cell death caused by zinc toxicity, excitory toxicity and oxidative damage: reduced
[1]
  patch-like TSQ abnormal staining (zinc accumulation): significantly reduced
Spinal cord of EAE mice; Sham group (no EAE induction), white or gray matter
  IgG staining due to damage of BBB: not detected
Spinal cord of EAE mice; spinal cord white matter, after EAE induction, vs vehicle
  infiltration of the T and B cells (CD4, CD8, CD20): significantly inhibited
Spinal cord of EAE mice; white and gray matter, 3 weeks after MOG injection
  IgG infiltration (BBB damage): significantly reduced
Cultivated neurons
  increase of intracellular zinc level (FluoZin-3): significantly reduced
[2]
  behavioral disorders (EAE clinical score): significantly inhibited
  incidence rate: suppressed
